Experimental data reported in patent US8906944B2, “Compounds as tyrosine kinase modulators” (Allergan, Inc., priority 2009, dated 2014).

Legend:
[1] = target: T1, human VEGF receptor (VEGFR-2) (Homo sapiens, UniProt P35968); experiment: VEGFR2 kinase assay; type: biochemical; settings: His-VEGFR-2 cytoplasmic domain, 3.6 μM ATP; Table IV, amide or urea linker; read-out: VEGFR2 Enzyme IC50
T1 construct: The cytoplasmic domain of the human VEGF receptor (VEGFR-2) was expressed; His; made in house; host or cells: insect cells (baculovirus)
T1 sequence (P35968 786-1356 limits assumed): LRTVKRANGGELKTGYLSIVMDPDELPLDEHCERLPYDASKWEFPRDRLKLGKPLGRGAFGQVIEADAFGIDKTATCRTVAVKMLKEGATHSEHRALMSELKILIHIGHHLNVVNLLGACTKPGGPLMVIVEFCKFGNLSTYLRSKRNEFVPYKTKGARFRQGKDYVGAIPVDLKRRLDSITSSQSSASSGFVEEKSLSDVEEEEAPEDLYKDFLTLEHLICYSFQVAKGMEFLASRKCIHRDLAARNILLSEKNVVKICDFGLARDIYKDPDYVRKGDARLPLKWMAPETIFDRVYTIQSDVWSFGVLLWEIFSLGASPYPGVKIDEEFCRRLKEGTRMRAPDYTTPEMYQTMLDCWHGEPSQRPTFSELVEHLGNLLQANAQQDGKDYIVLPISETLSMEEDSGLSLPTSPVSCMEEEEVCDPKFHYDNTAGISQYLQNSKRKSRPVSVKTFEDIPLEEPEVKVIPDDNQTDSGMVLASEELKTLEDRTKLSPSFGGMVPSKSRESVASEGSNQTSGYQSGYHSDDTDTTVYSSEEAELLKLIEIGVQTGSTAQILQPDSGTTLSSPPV
In short: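 His-tagged VEGFR-2 cytoplasmic domain from baculovirus-infected insect cells phosphorylating plate-bound poly-Glu-Tyr (4:1). IC50 from blank-subtracted optical density versus compound concentration.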

[2] = target: VEGFR1 (Homo sapiens, UniProt P17948); experiment: VEGFR1 enzyme assay; type: biochemical; settings: Table IV, amide or urea linker
Sequence of VEGFR1 (P17948 27-1338, species assumed): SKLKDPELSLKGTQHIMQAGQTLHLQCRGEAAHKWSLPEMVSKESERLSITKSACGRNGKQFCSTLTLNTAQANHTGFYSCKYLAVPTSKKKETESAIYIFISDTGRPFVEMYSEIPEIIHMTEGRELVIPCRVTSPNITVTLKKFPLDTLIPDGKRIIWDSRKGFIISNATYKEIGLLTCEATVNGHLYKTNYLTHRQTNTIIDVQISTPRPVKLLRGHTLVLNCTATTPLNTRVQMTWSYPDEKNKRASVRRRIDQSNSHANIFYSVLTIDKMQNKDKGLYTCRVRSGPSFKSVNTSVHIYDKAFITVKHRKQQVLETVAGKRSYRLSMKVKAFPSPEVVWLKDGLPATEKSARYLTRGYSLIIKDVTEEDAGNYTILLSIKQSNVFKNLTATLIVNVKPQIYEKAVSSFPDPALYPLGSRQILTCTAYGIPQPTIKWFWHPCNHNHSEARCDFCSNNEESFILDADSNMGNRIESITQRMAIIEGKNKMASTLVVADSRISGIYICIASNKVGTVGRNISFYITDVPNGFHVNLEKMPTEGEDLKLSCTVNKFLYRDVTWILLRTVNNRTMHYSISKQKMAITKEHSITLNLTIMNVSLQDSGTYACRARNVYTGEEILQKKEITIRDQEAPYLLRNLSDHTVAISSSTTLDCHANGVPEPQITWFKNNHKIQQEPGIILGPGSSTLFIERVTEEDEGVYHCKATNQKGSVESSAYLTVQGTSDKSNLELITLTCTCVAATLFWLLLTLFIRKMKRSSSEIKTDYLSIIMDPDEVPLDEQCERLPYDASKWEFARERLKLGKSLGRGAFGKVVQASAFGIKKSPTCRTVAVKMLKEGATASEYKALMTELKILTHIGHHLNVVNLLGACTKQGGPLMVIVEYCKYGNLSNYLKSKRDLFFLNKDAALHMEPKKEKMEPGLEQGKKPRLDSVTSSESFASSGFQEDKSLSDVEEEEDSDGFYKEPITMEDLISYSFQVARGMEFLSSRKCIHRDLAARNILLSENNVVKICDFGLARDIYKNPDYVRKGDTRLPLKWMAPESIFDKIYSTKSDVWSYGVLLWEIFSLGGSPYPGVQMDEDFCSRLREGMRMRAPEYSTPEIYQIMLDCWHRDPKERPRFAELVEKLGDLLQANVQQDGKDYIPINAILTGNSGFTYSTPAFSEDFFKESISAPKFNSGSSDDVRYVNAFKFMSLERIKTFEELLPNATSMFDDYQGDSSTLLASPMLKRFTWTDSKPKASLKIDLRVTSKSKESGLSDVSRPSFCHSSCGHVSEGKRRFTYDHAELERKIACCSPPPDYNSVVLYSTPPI

[3] = target: PDGFβ (Homo sapiens, UniProt P09619); experiment: PDGFβ enzyme assay; type: biochemical; settings: Table IV, amide or urea linker
Sequence of PDGFβ (P09619 33-1106): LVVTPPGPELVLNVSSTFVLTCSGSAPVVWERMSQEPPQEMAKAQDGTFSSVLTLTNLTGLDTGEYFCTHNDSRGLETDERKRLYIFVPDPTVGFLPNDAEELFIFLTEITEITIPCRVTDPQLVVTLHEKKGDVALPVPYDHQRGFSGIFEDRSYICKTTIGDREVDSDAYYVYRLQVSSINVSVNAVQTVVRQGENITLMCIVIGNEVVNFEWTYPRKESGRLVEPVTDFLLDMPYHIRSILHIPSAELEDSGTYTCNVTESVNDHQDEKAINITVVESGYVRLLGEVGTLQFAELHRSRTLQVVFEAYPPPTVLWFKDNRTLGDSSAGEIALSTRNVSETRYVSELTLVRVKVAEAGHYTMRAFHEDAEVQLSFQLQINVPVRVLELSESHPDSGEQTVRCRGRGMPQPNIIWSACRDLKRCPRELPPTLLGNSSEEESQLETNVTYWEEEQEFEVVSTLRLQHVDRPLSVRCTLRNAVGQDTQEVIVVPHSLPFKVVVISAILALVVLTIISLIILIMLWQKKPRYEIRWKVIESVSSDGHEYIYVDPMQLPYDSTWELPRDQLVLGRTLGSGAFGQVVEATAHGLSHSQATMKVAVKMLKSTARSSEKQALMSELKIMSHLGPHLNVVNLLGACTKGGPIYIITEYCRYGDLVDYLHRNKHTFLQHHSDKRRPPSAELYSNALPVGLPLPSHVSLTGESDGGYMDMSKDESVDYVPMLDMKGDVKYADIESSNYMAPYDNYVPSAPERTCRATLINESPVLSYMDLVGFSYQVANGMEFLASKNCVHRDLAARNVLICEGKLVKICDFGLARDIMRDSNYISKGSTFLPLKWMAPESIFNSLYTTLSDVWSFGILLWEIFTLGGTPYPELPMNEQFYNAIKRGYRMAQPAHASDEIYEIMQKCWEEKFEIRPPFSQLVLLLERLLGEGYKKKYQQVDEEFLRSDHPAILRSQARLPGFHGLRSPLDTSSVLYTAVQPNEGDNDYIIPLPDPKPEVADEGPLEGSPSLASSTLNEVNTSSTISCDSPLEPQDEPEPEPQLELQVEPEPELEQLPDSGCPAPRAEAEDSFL

[4] = target: VEGFR2 (Homo sapiens, UniProt P35968); experiment: VEGF stimulated Ca++ signal in vitro (FLIPR)
Sequence of VEGFR2 (P35968 20-1356): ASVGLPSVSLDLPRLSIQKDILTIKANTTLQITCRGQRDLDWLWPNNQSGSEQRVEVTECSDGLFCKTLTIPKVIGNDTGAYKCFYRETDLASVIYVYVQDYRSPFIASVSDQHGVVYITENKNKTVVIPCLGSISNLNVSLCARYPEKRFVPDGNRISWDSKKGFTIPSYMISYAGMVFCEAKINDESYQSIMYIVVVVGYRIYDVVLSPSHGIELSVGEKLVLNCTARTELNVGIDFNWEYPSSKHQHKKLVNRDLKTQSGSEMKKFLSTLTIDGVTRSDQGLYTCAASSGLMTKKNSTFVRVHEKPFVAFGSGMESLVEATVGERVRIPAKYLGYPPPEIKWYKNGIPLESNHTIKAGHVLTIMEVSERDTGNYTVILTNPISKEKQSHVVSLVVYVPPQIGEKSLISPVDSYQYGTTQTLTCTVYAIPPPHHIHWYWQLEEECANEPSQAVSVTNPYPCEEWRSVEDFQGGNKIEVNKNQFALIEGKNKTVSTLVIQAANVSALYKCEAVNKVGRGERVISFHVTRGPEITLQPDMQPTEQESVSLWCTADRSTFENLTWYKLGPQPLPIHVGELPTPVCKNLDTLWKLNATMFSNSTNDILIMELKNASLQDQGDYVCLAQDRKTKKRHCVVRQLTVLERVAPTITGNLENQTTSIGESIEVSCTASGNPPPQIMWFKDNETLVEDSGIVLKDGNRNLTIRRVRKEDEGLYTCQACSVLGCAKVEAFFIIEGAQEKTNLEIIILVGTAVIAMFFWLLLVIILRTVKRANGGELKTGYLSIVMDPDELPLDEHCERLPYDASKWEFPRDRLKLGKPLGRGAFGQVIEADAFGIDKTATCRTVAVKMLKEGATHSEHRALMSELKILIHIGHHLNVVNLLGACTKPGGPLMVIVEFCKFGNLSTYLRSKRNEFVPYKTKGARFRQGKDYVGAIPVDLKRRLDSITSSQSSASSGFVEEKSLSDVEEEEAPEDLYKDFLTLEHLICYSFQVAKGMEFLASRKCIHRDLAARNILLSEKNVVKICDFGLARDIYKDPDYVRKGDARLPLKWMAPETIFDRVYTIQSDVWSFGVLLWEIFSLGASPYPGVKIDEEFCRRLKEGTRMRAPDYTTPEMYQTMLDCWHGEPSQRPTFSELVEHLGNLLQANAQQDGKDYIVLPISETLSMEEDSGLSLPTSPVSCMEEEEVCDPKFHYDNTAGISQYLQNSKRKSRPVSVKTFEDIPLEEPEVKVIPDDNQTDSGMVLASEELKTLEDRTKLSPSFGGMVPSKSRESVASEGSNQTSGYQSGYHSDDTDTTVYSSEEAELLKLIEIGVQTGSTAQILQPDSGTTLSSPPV
Procedure: VEGF Stimulated Ca^++Signal in Vitro
Automated FLIPR (Fluorometric Imaging Plate Reader) technology was used to screen for inhibitors of VEGF induced increases in intracellular calcium levels in fluorescent dye loaded endothelial cells. HUVEC (human umbilical vein endothelial cells) (Clonetics) were seeded in 96-well fibronectin coated black-walled plates overnight at 37 degree. C./5% CO2. […] C. Cells were washed 4 times (Original Cell Wash, Labsystems) to remove extracellular dye. […] Data were generated by determining max-min fluorescence levels for unstimulated, stimulated, and drug treated samples. IC50 values for test compounds were calculated from % inhibition of VEGF stimulated responses in the absence of inhibitor.

| Compound | IC50 [1] [nM] | IC50 [2] [nM] | IC50 [3] [nM] | IC50 [4] [nM] |
| --- | --- | --- | --- | --- |
| COC(=O)[C@@H]1C[C@@H](O)CN1CCNC(=O)c1c[nH]c(-c2cc(Oc3ccc(NC(=O)Nc4cc(C)ccc4F)cc3)ccn2)c1 (relative stereo) [Example 161, methyl rel-(2R,4S)-1-(2-{[(5-{4-[4-({[(2-fluoro-5-methylphenyl)amino]carbonyl}amino)phenoxy]pyridin-2-yl}-1H-pyrrol-3-yl)carbonyl]amino}ethyl)-4-hydroxypyrrolidine-2-carboxylate] | 9 | 9 | 20 | 10 |
| COC(=O)[C@@H]1C[C@@H](O)CN1CCCNC(=O)c1c[nH]c(-c2cc(Oc3ccc(NC(=O)Nc4cc(C)ccc4F)cc3)ccn2)c1 (relative stereo) [Example 164, methyl rel-(2R,4S)-1-(3-{[(5-{4-[4-({[(2-fluoro-5-methylphenyl)amino]carbonyl}amino)phenoxy]pyridin-2-yl}-1H-pyrrol-3-yl)carbonyl]amino}propyl)-4-hydroxypyrrolidine-2-carboxylate] | 9 | 10 | 17 | 5 |
| COC(=O)[C@@H]1C[C@@H](O)CN1CCCNC(=O)c1c[nH]c(-c2cc(Oc3ccc(NC(=O)Nc4cc(C)ccc4F)c(F)c3)ccn2)c1 (relative stereo) [Example 217, methyl rel-(2R,4S)-1-(3-{[(5-{4-[3-fluoro-4-({[(2-fluoro-5-methylphenyl)amino]carbonyl}amino)phenoxy]pyridin-2-yl}-1H-pyrrol-3-yl)carbonyl]amino}propyl)-4-hydroxypyrrolidine-2-carboxylate] | 5 | 10 | 21 | 10 |
| COC(=O)CNCCCNC(=O)c1c[nH]c(-c2cc(Oc3ccc(NC(=O)Nc4cc(C)ccc4F)cc3)ccn2)c1 [Example 154, methyl [(3-{[(5-{4-[4-({[(2-fluoro-5-methylphenyl)amino]carbonyl}amino)phenoxy]pyridin-2-yl}-1H-pyrrol-3-yl)carbonyl]amino}propyl)amino]acetate] | 7 | 8 | 15 | 14 |
| COC(=O)CNCCNC(=O)c1c[nH]c(-c2cc(Oc3ccc(NC(=O)Nc4cc(C)ccc4F)cc3)ccn2)c1 [Example 155, methyl [(2-{[(5-{4-[4-({[(2-fluoro-5-methylphenyl)amino]carbonyl}amino)phenoxy]pyridin-2-yl}-1H-pyrrol-3-yl)carbonyl]amino}ethyl)amino]acetate] | 8 | 7 | 20 | 4 |
| COC(=O)CN(CCNC(=O)c1c[nH]c(-c2cc(Oc3ccc(NC(=O)Nc4cc(C)ccc4F)cc3)ccn2)c1)CC(=O)OC [Example 156, dimethyl 2,2′-[(2-{[(5-{4-[4-({[(2-fluoro-5-methylphenyl)amino]carbonyl}amino)phenoxy]pyridin-2-yl}-1H-pyrrol-3-yl)carbonyl]amino}ethyl)imino]diacetate] | 11 | 8 | 31 | 9 |
| CCOC(=O)CN1CCN(CCNC(=O)c2c[nH]c(-c3cc(Oc4ccc(NC(=O)Nc5cc(C)ccc5F)cc4)ccn3)c2)CC1 [Example 157, ethyl [4-(2-{[(5-{4-[4-({[(2-fluoro-5-methylphenyl)amino]carbonyl}amino)phenoxy]pyridin-2-yl}-1H-pyrrol-3-yl)carbonyl]amino}ethyl)piperazin-1-yl]acetate] | 10 | 8 | 39 | 3 |
| COC(=O)[C@@H]1CCCN1CCCNC(=O)c1c[nH]c(-c2cc(Oc3ccc(F)c(NC(=O)c4occc4C)c3)ccn2)c1 [Example 188, methyl 1-[3-({[5-(4-{4-fluoro-3-[(3-methyl-2-furoyl)amino]phenoxy}pyridin-2-yl)-1H-pyrrol-3-yl]carbonyl}amino)propyl]pyrrolidine-2-carboxylate] | 27 | 32 | – | 5 |
| Cc1ccoc1C(=O)Nc1cc(Oc2ccnc(-c3cc(C(=O)NCCCN4CCC(O)CC4)c[nH]3)c2)ccc1F [Example 189, 5-(4-{4-fluoro-3-[(3-methyl-2-furoyl)amino]phenoxy}pyridin-2-yl)-N-[3-(4-hydroxypiperidin-1-yl)propyl]-1H-pyrrole-3-carboxamide] | 34 | 37 | – | 15 |
| Cc1ccoc1C(=O)Nc1cc(Oc2ccnc(-c3cc(C(=O)NCCCN4CCN(C)CC4)c[nH]3)c2)ccc1F [Example 193, 5-(4-{4-fluoro-3-[(3-methyl-2-furoyl)amino]phenoxy}pyridin-2-yl)-N-[3-(4-methylpiperazin-1-yl)propyl]-1H-pyrrole-3-carboxamide] | 31 | 35 | – | 11 |
| COCCOC(=O)CCCNC(=O)c1c[nH]c(-c2cc(Oc3ccc(NC(=O)Nc4cc(C)ccc4F)cc3)ccn2)c1 [Example 233, 2-methoxyethyl 4-{[(5-{4-[4-({[(2-fluoro-5-methylphenyl)amino]carbonyl}amino)phenoxy]pyridin-2-yl}-1H-pyrrol-3-yl)carbonyl]amino}butanoate] | 9 | – | 22 | 5 |
| Cc1cccc(NC(=O)Nc2ccc(Oc3ccnc(-c4cc(C(=O)NN)c[nH]4)c3)cc2)c1 [Example 238, 1-[4-({2-[4-(hydrazinocarbonyl)-1H-pyrrol-2-yl]pyridin-4-yl}oxy)phenyl]-3-(3-methylphenyl)urea] | 19 | – | 28 | 4 |
| Cc1cccc(NC(=O)Nc2ccc(Oc3ccnc(-c4cc(C(=O)NCCCN5CCOCC5)c[nH]4)c3)cc2)c1 [Example 239, 5-{4-[4-({[(3-methylphenyl)amino]carbonyl}amino)phenoxy]pyridin-2-yl}-N-(3-morpholin-4-ylpropyl)-1H-pyrrole-3-carboxamide] | 7 | – | 16 | 2 |
| COC(=O)CCNC(=O)c1c[nH]c(-c2cc(Oc3cc(C(=O)Nc4cc(C)ccc4F)ccc3F)ccn2)c1 [Example 259, methyl 3-[({5-[4-(2-fluoro-5-{[(2-fluoro-5-methylphenyl)amino]carbonyl}phenoxy)pyridin-2-yl]-1H-pyrrol-3-yl}carbonyl)amino]propanoate] | 35 | 23 | 47 | – |
| Cc1ccc(F)c(NC(=O)Nc2ccc(Oc3ccnc(-c4csc(C(=O)NCCC(=O)O)c4)c3)cc2)c1 [Example 278, 3-{[(4-{4-[4-({[(2-fluoro-5-methylphenyl)amino]carbonyl}amino)phenoxy]pyridin-2-yl}-2-thienyl)carbonyl]amino}propanoic acid] | 14 | 15 | 16 | – |
| COC(=O)CCNC(=O)c1cc(-c2cc(Oc3ccc(NC(=O)Nc4cc(C)ccc4F)cc3)ccn2)cs1 [Example 279, methyl 3-{[(4-{4-[4-({[(2-fluoro-5-methylphenyl)amino]carbonyl}amino)phenoxy]pyridin-2-yl}-2-thienyl)carbonyl]amino}propanoate] | 21 | – | 23 | 1 |
